We go through 15 compounds from paper PMC9332756, “Exploration of Diazaspiro Cores as Piperazine Bioisosteres in the Development of σ2 Receptor Ligands” (International Journal of Molecular Sciences, 2022).

In assay [1] the target is T1, σ1R (Cavia porcellus, UniProt Q60492).
T1 construct: from tissue; host or cells: Guinea pig brain homogenate
Nature of the assay: σ1R radioligand binding assay with [3H]-(+)-pentazocine, Guinea pig brain homogenates. Conditions: mean ± SEM, at least three experiments. The protocol: (§1) Radioligand binding assays were conducted using [^125I]RHM-4 with rat liver homogenates for σ2R-binding properties and a σ1R assay using [^3H]-(+)-pentazocine with Guinea pig brain homogenates. Evaluation of the compounds in the in vitro radioligand binding studies was conducted using a two-step process. […] Compounds displaying ≥ 50% displacement of radioligand binding in σ1 and σ2 assays (Table 1) were chosen for full competition studies using 10 different concentrations of the displacer. A representative competition curve at σ1 and σ2 receptors is shown for compound 2t in Figure 2.
(§2) For screening, [^3H]-(+)-pentazocine (~50,000 cpm) or [^125I]RHM-4 (~200,000 cpm) was mixed with 100 nM of tested compounds. Guinea pig brain homogenates (100 µg) or rat liver homogenates (15 µg) were added to mixture and incubated at 37 °C for 90 min. The mixture was filtered by harvester and washed 3 times using cold washing buffer (10 mM Tris-HCl, 150 mM NaCl). Collected filter was mixed with 3 mL of microscintTM20 and counted 1 min/well using beta counter. […] After that, protein was added and incubated at 37 °C for 90 min. The bound form was filtered by Whatman CF/C filter which was soaked in 1% of polyethyleneimine (PEI) in DW and then filters were washed tree times with cold washing buffer. The non-specific binding was determined in the presence of 10 µM of haloperidol or cold RHM-4. Filter was collected and read by scintillation counting (MicroBeta2 ®, PerkinElmer, Beaconsfield, UK) or gamma counter (PerkinElmer, Beaconsfield, UK). The data were analyzed using PRISM 8 (GraphPad Inc., San Diego, CA, USA).

In assay [2] the target is T2, σ2R (Rattus norvegicus, UniProt Q5U3Y7).
T2 construct: from tissue; host or cells: rat liver homogenate
T2 sequence (Q5U3Y7 1-176): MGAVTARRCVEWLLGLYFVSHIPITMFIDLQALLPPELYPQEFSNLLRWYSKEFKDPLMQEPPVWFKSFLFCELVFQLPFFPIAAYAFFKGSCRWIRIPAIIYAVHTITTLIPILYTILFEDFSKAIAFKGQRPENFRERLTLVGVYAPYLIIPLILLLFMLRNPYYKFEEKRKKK
Nature of the assay: σ2R radioligand binding assay with [125I]RHM-4, rat liver homogenates. Conditions: for Ki: rat liver homogenates, [125I]RHM-4, mean ± SEM, at least three experiments; for σ1/σ2 Ratio: ratio of Ki σ1R to Ki σ2R. The method, then:
as §1, §2

Assay [3] concerns the target σ2R. The settings on record: Figure 1; cited from earlier work.
Assay [4] has as its target σ1R. Conditions: Figure 1; cited from earlier work.
For assay [5], the target named is T2, σ2R. Briefly: σ2R radioligand binding assay with [125I]RHM-4, rat liver homogenates. Conditions: three-point screening assay (10 nM, 100 nM, 1 μM).

SMILES strings stand for the structures.

T1 sequence (Q60492 whole entry): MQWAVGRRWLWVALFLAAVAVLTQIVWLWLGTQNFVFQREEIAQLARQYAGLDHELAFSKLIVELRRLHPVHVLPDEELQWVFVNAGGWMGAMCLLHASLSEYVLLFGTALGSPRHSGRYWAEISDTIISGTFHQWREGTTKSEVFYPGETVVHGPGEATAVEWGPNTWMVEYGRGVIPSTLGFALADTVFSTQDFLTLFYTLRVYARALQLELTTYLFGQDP

In assay [1], `Cn1c(=O)n(CCCCN2CCC3(CC2)CCN(c2ccccc2F)CC3)c2ccccc21` [Compound 2e] registered a Ki of 659 ± 84.2 nM. For the same compound, in assay [2], the Ki was 24.4 ± 3.3 nM and the “σ1/σ2 Ratio” value worked out at 27.
`COc1cc2c(cc1OC)CN(CCCCNC(=O)c1cc(I)cc(OC)c1OC)CC2` [RHM-4]: the Ki in assay [3] is 1 nM; in assay [4], 554 nM.
As for `COc1ccc(C)cc1NC(=O)OC1CC2CCCC(C1)N2CCCCCCN` (stereo not shown) [SV 119], the Ki in assay [3] was 5.19 ± 0.8 nM; in assay [4], 1420 ± 439 nM.
`CCN(c1ccc(F)cc1)C1CN(CCCCn2c(=O)n(C)c3ccccc32)C1` [Compound 2u] returned a Ki in assay [1] of 279 ± 30.7 nM. Moreover, in assay [2], the Ki is 18.8 ± 1.6 nM and the “σ1/σ2 Ratio” value was determined as 15.
`Cn1c(=O)n(CCCCN2CCN(c3cccc(F)c3)CC2)c2ccccc21` [Compound 7, reference compound] registered a Ki in assay [1] of 702 ± 272 nM. Moreover, in assay [2], affinity was put at a Ki of 2 ± 0.6 nM and the “σ1/σ2 Ratio” value was found to be 351.
The like results for `Cn1c(=O)n(CCCCN2CC3(C2)CN(c2ccc(F)cc2)C3)c2ccccc21` [Compound 2o] were, in that order, 45.9 ± 6.8 nM, 40 ± 3.2 nM and 1.1.
In the case of `COc1cccc2c1CCCC2CCCN1CCN(C2CCCCC2)CC1` (stereo not shown) [PB28, 1-cyclohexyl-4-[3-(5-methoxy-1,2,3,4-tetrahydronaphthalen-1-yl)propyl]piperazine], the Ki in assay [3] is 0.68 ± 0.2 nM; in assay [4], 0.38 ± 0.1 nM.
With `Cn1c(=O)n(CCCCN2CCCN(c3ccc(F)cc3)CC2)c2ccccc21` [Compound 2t], the Ki in assay [1] stood at 255 ± 29.9 nM; in assay [2] it was 3.8 ± 0.9 nM. Also, the “σ1/σ2 Ratio” value in assay [2] was determined as 67.
On to `Cn1c(=O)n(CCCCN2CC3CCN(c4ccc(F)cc4)C3C2)c2ccccc21` (stereo not shown) [Compound 2s], for which, in assay [5], the “affinity for the σ2R (in words)” value was “low affinity”.
In assay [1], `Cn1c(=O)n(CCCCN2CCN(c3ccc(F)cc3)CC2)c2ccccc21` [Compound 1, reference compound] had a Ki of 251 ± 48.1 nM. Further, the “σ1/σ2 Ratio” value in assay [2] turned out to be 279.
Turning to `Cn1c(=O)n(CCCCN2CC3CC2CN3c2ccc(F)cc2)c2ccccc21` (stereo not shown) [Compound 2r], the Ki in assay [1] came to 712 ± 135 nM. In assay [2], the Ki stood at 10.7 ± 1.8 nM and the “σ1/σ2 Ratio” value was found to be 66.
Regarding `Cn1c(=O)n(CCCCN2CC3CCC(C2)N3c2ccc(F)cc2)c2ccccc21` [Compound 2q], the “affinity for the σ2R (in words)” value in assay [5] is “low affinity”.
For the compound `Cn1c(=O)n(CCCCN2CC3(C2)CN(c2ccccc2F)C3)c2ccccc21` [Compound 2n], the figures for the Ki in assay [1] and in assay [2] were 20.5 ± 3.3 nM and 41.8 ± 7.5 nM, respectively. In assay [2], the “σ1/σ2 Ratio” value was 0.5.
With `Fc1ccc(-n2cc(CCCCN3CCC4(CC3)OCc3ccccc34)c3ccccc32)cc1` [Siramesine], the figures for the Ki in assay [3] and in assay [4] were 0.12 nM and 17 nM, respectively.
For the compound `Cn1c(=O)n(CCCCN2CC3CCCC(C2)N3c2ccc(F)cc2)c2ccccc21` [Compound 2p], the “affinity for the σ2R (in words)” value in assay [5] is on record as “low affinity”.
